Experimental data taken from patent US9834514B2, “Antibiotic sensitivity-restoring and photosensitive agents” (New Mexico Tech Research Foundation, priority 2015, dated 2017).

Tests used:
P. aeruginosa = experiment: Cell killing with compounds and PME at fixed concentrations, with and without white light; format: cell-based; details: for Co-treatment with PME: log reduction in the CFU/mL compared to PME alone: 20 μM compound and 0.1 μg/mL PME
Experimental: FIG. 26 is an example of the treatment of P. aeruginosa with compound 1 and PME at fixed concentrations.
P. aeruginosa cells were also treated with white light upon being incubated with compound 1 for different durations of time. In a 12×75 mm borosilicate glass culture tube, 1 mL of cell suspension was added. PME was added to the cells, and the samples were mixed using a vortex mixer. The resulting samples were incubated for 1.5 hours at 37° C. on a rotary shaking incubator at 100 rpm. Compound 1 was then added, and the samples were incubated for 30 minutes at 37° C. on a rotary shaking incubator at 100 rpm. The samples were then irradiated with white light using a Lumacare™ LC-122 for 2 minutes (irradiation λ1) and incubated overnight at 37° C. The samples were irradiated again with white light using a Lumacare™ LC-122 for 2 minutes (irradiation λ2). Ten-fold dilutions were made of each sample, and 10 μL of each dilution was drip-streaked onto an agar plate. The samples were incubated overnight at 37° C., and colony counts were performed to calculate CFU/mL.
FIG. 55 is an illustrative example of the treatment of P. aeruginosa with compound 1, PME, co-treatment with compound 1 and PME, and co-treatment with compound 1, PME, and light (λ1 and λ2) at fixed concentrations.

CRE = experiment: Resensitization to antibiotics (log reduction, TABLE 29); format: cell-based
Experimental: In a 96-well microtiter plate, two-fold dilutions were made of each drug (starting with 100 μM) in 100 μL of a cell suspension in TSB. The resulting samples were incubated overnight at 37° C. on a rotary shaking incubator at 100 rpm. The samples were then visually inspected for turbidity. A 20% well volume of MTT reagent (5 mg/mL) was subsequently added, and the samples were incubated for about 20 minutes.

drug-resistant bacteria = experiment: Summary of synergistic activities with antibiotic families (TABLE 45); format: cell-based; details: MRSA ATCC BAA-44
Excerpt: TABLE 45 summarizes the synergistic activities of the seven classes of clinically used antibiotics and compounds of the invention against a variety of different drug-resistant bacteria.

MRSA (ATCC BAA-44) = experiment: Synergy with oxacillin and norfloxacin and other antibiotics (colony counts); format: cell-based, S. aureus
Experimental: The synergy of compounds 1 and 7-11 with oxacillin and norfloxacin was tested against MRSA (ATCC BAA-44). An overnight culture of MRSA was first diluted to about 5×10^5 CFU/mL in TSB. Then, 1 mL of the diluted broth suspension was added to a borosilicate glass culture tube. An appropriate volume of a compound or an antibiotic drug stock was added to the broth suspension and mixed using a vortex mixer. Then an appropriate volume of an antibiotic was added to test synergy with compounds 7-11. The samples were subsequently mixed using a vortex mixer, and the samples were incubated for 18 hours at 37° C. on a rotary shaking incubator. After 18 hours, the test cultures were diluted ten-fold, 10 μL of each dilution was drip-streaked onto a TSA plate, and the samples were incubated for 18 hours at 37° C. Colony counts were then performed and the CFU/mL values were calculated.
TABLE 21 details the MIC values identified in the MRSA assay of compounds 1, 7, 8, 9, 10, 11, various antibiotics, and light.

HeLa cells = experiment: Toxicity (IC50) on HeLa cells; format: cell-based, human; details: Homo sapiens; cancerous cervical epithelium HeLa cells
Experimental: The toxicities of the compounds of the invention were determined for human cancerous cervical epithelium HeLa and normal lung fibroblast WI38 cells. The toxicities of EPIs INF-55 and INF-55Cl were quantified as controls. […] TABLE 2 compares the toxicity of compounds 7-11 on HeLa cells and normal WI38 cells.

VRE = experiment: MIC against VRE; format: cell-based, Enterococcus faecalis; details: Enterococcus, TABLE 23, read-out: VRE MIC
Experimental: In a 12×75 mm borosilicate glass culture tube, 1 mL of cell suspension was added. Then, compound 7 was added to the cells, and the samples were mixed using a vortex mixer. […] The samples were incubated overnight at 37° C. on a rotary shaking incubator at 100 rpm.

[1] = (1/40) MIC compound + (1/30) MIC Tetracycline
[2] = (1/40) MIC compound + (1/31) MIC Dicloxicillin
[3] = (1/40) MIC compound + (1/50) MIC Dicloxicillin
[4] = (1/40) MIC compound + (1/50) MIC Norfloxacin
[5] = (1/40) MIC compound + (1/50) MIC Tobramycin
[6] = (1/40) MIC compound + (¼) MIC Oxacillin
[7] = (1/40) MIC compound + (⅙) MIC Vancomycin
[8] = compared to compound alone, FIGS. 34, 39, 41
[9] = increase in ability to kill MRSA versus drug or compound alone

Question: Which “Co-treatment with PME: log reduction in the CFU/mL compared to PME alone” value (P. aeruginosa) does the source give for `Clc1ccc(/C=C/c2[nH]c3ccccc3c2/C=C/c2ccc(Cl)cc2)cc1` [Compound 1] here?
Answer: 2-log reduction

Question: And the “Co-treatment with PME: log reduction in the CFU/mL compared to PME alone” value (P. aeruginosa; listed as compound 1)?
Answer: ~2 log reduction

Question: And the “reduction in the CFU/mL compared to co-treatment with compound 1 and PME” value (P. aeruginosa; additional irradiation after an overnight incubation (λ2), FIG. 55)?
Answer: negligible reduction

Question: And the “log reduction in the CFU/mL compared to co-treatment with compound 1 and PME” value (P. aeruginosa; light immediately after a 30 minute incubation with compound 1 (λ1), FIG. 55)?
Answer: ~8 log

Question: And the PDT (P. aeruginosa; with white light, TABLE 19)?
Answer: ~7-log reduction

Question: And the “Log Reduction” value (CRE; compound 5 μM, PMB (0.2 μg/mL) + Light (2 min))?
Answer: 3

Question: And the “Log Reduction” value (CRE; compound 10 μM, PME (0.1 μg/mL))?
Answer: 9

Question: What about the “Log Reduction” value (CRE; compound 10 μM, PME (0.2 μg/mL) + Light (2 min)) of the same compound?
Answer: 9

Question: And the “Synergy with Erythromycin (Macrolides)” value (drug-resistant bacteria)?
Answer: Synergy (1)

Question: And the “Synergy with Tetracycline (Tetracyclines)” value (drug-resistant bacteria; †includes doxycycline)?
Answer: Synergy† (1)

Question: And the “% Kill” value (MRSA (ATCC BAA-44); [1])?
Answer: 99.99%

Question: What about the “Surviving MRSA” value (MRSA (ATCC BAA-44); [1]) of the same compound?
Answer: 1.00 × 10^−5

Question: What about the “% Kill” value (MRSA (ATCC BAA-44); [2]) of the same compound?
Answer: 99.99%

Question: What about the “Surviving MRSA” value (MRSA (ATCC BAA-44); [2]) of the same compound?
Answer: 1.00 × 10^−4

Question: What about the “% Kill” value (MRSA (ATCC BAA-44); [3]) of the same compound?
Answer: 99.99%

Question: What about the “Surviving MRSA” value (MRSA (ATCC BAA-44); [3]) of the same compound?
Answer: 1.00 × 10^−8

Question: And the “% Kill” value (MRSA (ATCC BAA-44); [4])?
Answer: 99.99%

Question: And the “Surviving MRSA” value (MRSA (ATCC BAA-44); [4])?
Answer: 1.00 × 10^−9

Question: What about the “% Kill” value (MRSA (ATCC BAA-44); [5]) of the same compound?
Answer: 99.99%

Question: What about the “Surviving MRSA” value (MRSA (ATCC BAA-44); [5]) of the same compound?
Answer: 1.00 × 10^−9

Question: What about the “% Kill” value (MRSA (ATCC BAA-44); [6]) of the same compound?
Answer: 99.99%

Question: And the “Surviving MRSA” value (MRSA (ATCC BAA-44); [6])?
Answer: 1.00 × 10^−7

Question: What about the “% Kill” value (MRSA (ATCC BAA-44); [7]) of the same compound?
Answer: 99.99%

Question: What about the “Surviving MRSA” value (MRSA (ATCC BAA-44); [7]) of the same compound?
Answer: 1.00 × 10^−9

Question: And the “% Kill” value (MRSA (ATCC BAA-44); (1/40) MIC compound + Light)?
Answer: 99.99%

Question: And the “Surviving MRSA” value (MRSA (ATCC BAA-44); (1/40) MIC compound + Light)?
Answer: 1.00 × 10^−8

Question: What about the “Synergy with Norfloxacin” value (MRSA (ATCC BAA-44); TABLE 6) of the same compound?
Answer: 5-log reduction

Question: And the “Synergy with Oxacillin” value (MRSA (ATCC BAA-44); TABLE 6)?
Answer: 5-log reduction

Question: What about the “log reduction in the number of surviving cells (CFU/mL), co-treatment with norfloxacin” value (MRSA (ATCC BAA-44); [8]) of the same compound?
Answer: ~5 log

Question: And the “log reduction in the number of surviving cells (CFU/mL), co-treatment with oxacillin” value (MRSA (ATCC BAA-44); [8])?
Answer: ~5 log

Question: What about the “Orders of Magnitude with Norfloxacin” value (MRSA (ATCC BAA-44); [9]) of the same compound?
Answer: 9

Question: What about the “Orders of Magnitude with Oxacillin” value (MRSA (ATCC BAA-44); [9]) of the same compound?
Answer: >7

Question: And the IC50 (HeLa cells)?
Answer: 68.9 ± 4.8 µM

Question: What about the MIC (VRE) of the same compound?
Answer: > 200 µM
